Results: patent US12611425B2, “Compositions and methods for treatment and prevention of pathogens” (WIAB WATER INNOVATION AB, priority 2022, dated 2026)
Where two headings read alike, the source gives them in different places.

Legend:
[1] = cited from earlier work
human rhinovirus (HRV) = conditions: low concentration nasal irrigation solution, in vitro, nasal epithelial cells; cited from earlier work
avian influenza virus = conditions: similar formulations, in vitro; cited from earlier work
[2] = cited from earlier work; remark: listed apart in the source
S. aureus biofilms = assay: In vitro anti-biofilm effect, viable CFU counting; assay type: cell-based, Staphylococcus aureus; conditions: 1% glutaric acid alone
Protocol: Test organisms: Pseudomonas aeruginosa or Staphylococcus aureus wild-type strains Biofilm type: 48 hours- or 24 hours-old biofilms grown on semipermeable membranes placed on solidified medium supplemented with 0.5% glucose. In the case of 48 h-old biofilms, the membranes with biofilms were transferred onto fresh plates after 24 h.
Initial viable cell amount: 5×10^9 colony forming units (CFUs)
Treatment method: Membranes with biofilms were transferred to new plates. Eight-10 layers of sterile gauze were placed on the second membrane, and 1 ml of antimicrobial solution was pipetted on the gauze layers. The treatment was carried out at room temperature for 2-to-3 h, or 4-to-6 h. In the case of the 4-to-6 h treatments, the gauze layers were replaced with fresh gauze layers with 1 ml sample solution 2 or 3 h after the treatments had been initiated.
Evaluation method: The gauze layers were discarded, and each membrane with biofilms was transferred into a 15 ml tube containing 5 ml 0.9% NaCl, vortexed for 10 sec., sonicated in an ultrasound bath for 10 min, and vortexed again for 10 sec. Ten-fold serial dilutions were made, and 10 ul of each dilution was spot-plated on LB plates for viable CFU counting.

[3] = system: bacterial log CFU/g ground chicken ground meat; conditions: separately or in a mixture; cited from earlier work
[4] = Powder flow determination (funnel flow, angle of repose); assay type: physicochemical; conditions: for flowability: 100 g, funnel outflow opening 15 mm
Protocol: 100 g of powdered calcium hypochlorite of sizes ≤355 μm and ≤500 μm was added, respectively, into a dry funnel (Ø110 mm, diameter of the outflow opening=15 mm), whose bottom opening has been blocked by a plastic cover. The bottom opening of the funnel was unblocked to measure the time needed for the entire sample to flow out. The flowability of particle sizes ≤355 μm and ≤500 μm is, respectively, 35.7 g/s and 37.4 g/s. The angle of repose was calculated as 29.5° and 26.8° for particle sizes 355 μm and ≤500 μm, respectively.

[5] = Dissolving time of powdered calcium hypochlorite in acetic acid/acetate buffer; assay type: physicochemical; conditions: 2500 rpm
Protocol: • I. 58±4 mg of all sizes of the powdered material was, respectively, dissolved in 100 mL 0.25% wt. acetic acid/acetate buffer. Particle size ≤250 μm dissolved within 10 seconds, ≤355 μm within 15 seconds and ≤500 μm within one minute and 25 seconds at 2500 rpm. • II. 58±4 mg of all sizes of the powdered material was, respectively, dissolved in 100 mL 3.0% wt. acetic acid/acetate buffer. Particle size ≤250 μm dissolved within 10 seconds, ≤355 μm within 25 seconds and ≤500 μm within 25 seconds at 2500 rpm. • III. 570±40 mg of all sizes of the powdered material was, respectively, dissolved in 100 mL 0.25% wt. acetic acid/acetate buffer. Particle size ≤250 μm dissolved within 15 seconds, ≤355 μm within 45 seconds and ≤500 μm within one minute and 35 seconds at 2500 rpm. • IV. 570±40 mg of all sizes of the powdered material was, respectively, dissolved in 100 mL 3.0% wt. acetic acid/acetate buffer. Repeated with 3.0% acetic acid/acetate buffer. Particle size ≤250 μm dissolved within 15 seconds, ≤355 μm within 15 seconds and ≤500 μm within 20 seconds at 2500 rpm.

OCl [hypochlorous acid]
standard reduction potential ([1]; basic pH): +0.89
standard reduction potential ([1]; low pH): +1.49
virus-killing effect (human rhinovirus (HRV)): significant virus-killing effect
effects against avian influenza virus (avian influenza virus): good effects
pKa [2]: about 7

O=C(O)CCCC(=O)O [glutaric acid]
effect on the biofilm (S. aureus biofilms): only minor effect

O=C([O-])CCC(=O)O.[Na+] [monosodium succinate]
reduction of bacterial log CFU/g [3]: ~2 log

[Ca+2].[O-]Cl.[O-]Cl [powdered calcium hypochlorite, calcium hypochlorite]
angle of repose ([4]; particle size 355 μm): 29.5 °
flowability ([4]; particle size ≤355 μm): 35.7 g/s
angle of repose ([4]; particle size ≤500 μm): 26.8 °
flowability ([4]; particle size ≤500 μm): 37.4 g/s
dissolving time ([5]; I: 58±4 mg in 100 mL 0.25% wt. acetic acid/acetate buffer, particle size ≤250 μm): ≤ 10 s
dissolving time ([5]; I: 58±4 mg in 100 mL 0.25% wt. buffer, particle size ≤355 μm): ≤ 15 s
dissolving time ([5]; II: 58±4 mg in 100 mL 3.0% wt. acetic acid/acetate buffer, particle size ≤250 μm): ≤ 10 s
dissolving time ([5]; II: 58±4 mg in 100 mL 3.0% wt. buffer, particle size ≤355 μm): ≤ 25 s
dissolving time ([5]; II: 58±4 mg in 100 mL 3.0% wt. buffer, particle size ≤500 μm): ≤ 25 s
dissolving time ([5]; III: 570±40 mg in 100 mL 0.25% wt. acetic acid/acetate buffer, particle size ≤250 μm): ≤ 15 s
dissolving time ([5]; III: 570±40 mg in 100 mL 0.25% wt. buffer, particle size ≤355 μm): ≤ 45 s
dissolving time ([5]; IV: 570±40 mg in 100 mL 3.0% wt. acetic acid/acetate buffer, particle size ≤250 μm): ≤ 15 s
dissolving time ([5]; IV: 570±40 mg in 100 mL 3.0% wt. buffer, particle size ≤355 μm): ≤ 15 s
dissolving time ([5]; IV: 570±40 mg in 100 mL 3.0% wt. buffer, particle size ≤500 μm): ≤ 20 s

CC(=O)C(=O)O [pyruvic acid]
reduction of bacterial log CFU/g [3]: ~2 log
